This note sets out measurements from patent US20230257351A1, “SUBSTITUTED N-[…] HAVING P2X4 RECEPTOR ANTAGONISTIC ACTIVITY” (Bayer Aktiengesellschaft, priority 2020, published 2023).

One assay addresses T1, human P2X4 (Homo sapiens, UniProt Q99571).
T1 construct: expressed in transfected cells
T1 sequence (Q99571 1-388): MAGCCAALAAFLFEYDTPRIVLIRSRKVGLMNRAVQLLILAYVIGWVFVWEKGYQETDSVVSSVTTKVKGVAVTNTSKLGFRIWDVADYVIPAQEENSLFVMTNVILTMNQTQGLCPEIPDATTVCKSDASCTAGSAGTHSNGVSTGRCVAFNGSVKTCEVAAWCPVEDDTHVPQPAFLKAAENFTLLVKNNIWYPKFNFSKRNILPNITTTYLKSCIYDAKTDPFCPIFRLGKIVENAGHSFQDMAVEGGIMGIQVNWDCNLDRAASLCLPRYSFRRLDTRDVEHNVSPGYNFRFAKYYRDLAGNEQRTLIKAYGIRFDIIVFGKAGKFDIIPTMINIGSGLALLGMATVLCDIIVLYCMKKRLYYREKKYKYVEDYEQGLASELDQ
In words: Human P2X4 HEK Cell FLIPR Assay. To be noted: HEK293 stably expressing human P2X4, agonist Bz-ATP 3 μM (EC80); for IC50: read-out: Human P2X4 HEK Cells (FLIPR Assay) avg IC50. The assay is classed as cell-based. Put shortly: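 HEK293 cells stably expressing human P2X4 were loaded with Fluo8-AM (30 min, 37 °C, HBSS/HEPES pH 7.4 with probenecid), then preincubated 30 min at room temperature with compound, 25 μM–1 nM final, 0.5% DMSO. Bz-ATP-evoked calcium fluorescence was read on FLIPR; data were normalized to agonist control and given a four-parameter fit for IC50.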

Another assay concerns the target T2, rat P2X4 (Rattus norvegicus, UniProt P51577).
T2 construct: expressed in transfected cells
T2 sequence (P51577 1-388): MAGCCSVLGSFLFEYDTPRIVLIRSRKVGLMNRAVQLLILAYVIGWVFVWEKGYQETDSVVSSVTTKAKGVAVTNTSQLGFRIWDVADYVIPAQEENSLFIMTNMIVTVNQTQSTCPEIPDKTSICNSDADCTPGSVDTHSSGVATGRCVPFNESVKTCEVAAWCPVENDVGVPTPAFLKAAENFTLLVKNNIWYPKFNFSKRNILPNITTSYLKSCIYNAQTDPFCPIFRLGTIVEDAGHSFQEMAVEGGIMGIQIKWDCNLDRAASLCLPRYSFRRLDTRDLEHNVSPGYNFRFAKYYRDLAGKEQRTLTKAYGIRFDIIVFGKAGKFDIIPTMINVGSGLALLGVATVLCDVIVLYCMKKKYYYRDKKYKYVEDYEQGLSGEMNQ
The assay can be described thus: FLIPR Method for Rat P2X4 1321N1 Astrocytoma Cells. It is filed as cell-based. The conditions noted are these: 1321N1 stably expressing rat P2X4; agonist MgATP 5 μM (EC80). The procedure, abridged:
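1321N1 cells stably expressing rat P2X4, Fluo8-AM loaded; compounds (25 μM to 1 nM final, ten concentrations) preincubated 30 min at room temperature, then MgATP added at 5 μM (EC80). Calcium fluorescence read on FLIPR before and after agonist; triplicate data normalized to agonist control, four-parameter fit gives IC50.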

Broadly, the IC50 is the concentration that inhibits the measured activity by half. With `CC(=O)N(c1ccc(F)c(F)c1)c1cc(NC(=O)Cc2c(Cl)cc(F)cc2Cl)ccn1` [Example 73, N-{4-[2-(2,6-dichloro-4-fluorophenyl)acetamido]pyridin-2-yl}-N-(3,4-difluorophenyl)acetamide], at human P2X4, the “Human P2X4 HEK Cells (FLIPR Assay) avg Efficacy” value (shortened to “Human P2X4 HEK Cells”) amounted to 97% and the IC50 amounted to 428 nM. In addition, on rat P2X4, the half-maximal inhibitory concentration (IC50) was 67.1 nM and the “Rat P2X4 1321N1 Astrocytoma Cells (FLIPR Assay) avg Efficacy” value (“Rat P2X4 1321N1 Astrocytoma Cells” below) came to 93%.

Turning to `CC(=O)N(c1ccc(F)c(F)c1)c1cc(NC(=O)Cc2c(Cl)cc(C)cc2Cl)ccn1` [Example 74, N-{4-[2-(2,6-dichloro-4-methylphenyl)acetamido]pyridin-2-yl}-N-(3,4-difluorophenyl)acetamide], at human P2X4, the “Human P2X4 HEK Cells” value is 89% and the IC50 stood at 585 nM. On rat P2X4, the IC50 amounted to 99.1 nM and the “Rat P2X4 1321N1 Astrocytoma Cells” value came out at 97%.

Take `CC(=O)N(c1ccc(F)c(F)c1)c1cc(NC(=O)Cc2ccccc2OC(F)(F)F)ccn1` [Example 76, N-(3,4-difluorophenyl)-N-(4-{2-[2-(trifluoromethoxy)phenyl]acetamido}pyridin-2-yl)acetamide]: on human P2X4, the “Human P2X4 HEK Cells” value is given as 97% and the 50% inhibitory concentration (IC50) amounted to 397 nM. Also, on rat P2X4, the IC50 stood at 667 nM and the “Rat P2X4 1321N1 Astrocytoma Cells” value was found to be 99%.

Consider `COc1ccc(N(C(C)=O)c2cc(NC(=O)Cc3ccccc3Cl)ccn2)cc1F` [Example 77, N-{4-[2-(2-chlorophenyl)acetamido]pyridin-2-yl}-N-(3-fluoro-4-methoxyphenyl)acetamide], for which, at human P2X4, the “Human P2X4 HEK Cells” value came to 94% and the concentration for half-maximal inhibition (IC50) amounted to 354 nM. Besides, on rat P2X4, the 50% inhibitory concentration (IC50) was determined as 993 nM and the “Rat P2X4 1321N1 Astrocytoma Cells” value turned out to be 84%.

`COc1ccc(N(C(C)=O)c2cc(NC(=O)Cc3cccc(F)c3Cl)ccn2)cc1F` [Example 79, N-{4-[2-(2-chloro-3-fluorophenyl)acetamido]pyridin-2-yl}-N-(3-fluoro-4-methoxyphenyl)acetamide]: on human P2X4, the “Human P2X4 HEK Cells” value was 97% and the IC50 amounted to 399 nM. On rat P2X4, the concentration for half-maximal inhibition (IC50) was determined as 1110 nM and the “Rat P2X4 1321N1 Astrocytoma Cells” value worked out at 96%.

Take `COc1ccc(N(C(C)=O)c2cc(NC(=O)Cc3c(Cl)cccc3Cl)ccn2)cc1F` [Example 80, N-{4-[2-(2,6-dichlorophenyl)acetamido]pyridin-2-yl}-N-(3-fluoro-4-methoxyphenyl)acetamide]: at human P2X4, the “Human P2X4 HEK Cells” value worked out at 99% and the 50% inhibitory concentration (IC50) was determined as 451 nM. Further, at rat P2X4, the 50% inhibitory concentration (IC50) stood at 338 nM and the “Rat P2X4 1321N1 Astrocytoma Cells” value is given as 97%.

As to `CC(=O)N(c1cc(F)cc(F)c1)c1cc(NC(=O)Cc2cccc(C)c2C)ccn1` [Example 83, N-(3,5-difluorophenyl)-N-{4-[2-(2,3-dimethylphenyl)acetamido]pyridin-2-yl}acetamide], at human P2X4, the “Human P2X4 HEK Cells” value was found to be 97% and the half-maximal inhibitory concentration (IC50) was 350 nM. Also, at rat P2X4, the IC50 came out at 143 nM and the “Rat P2X4 1321N1 Astrocytoma Cells” value worked out at 90%.

With `CC(=O)N(c1cc(F)cc(F)c1)c1cc(NC(=O)Cc2ccccc2C(F)(F)F)ccn1` [Example 84, N-(3,5-difluorophenyl)-N-(4-{2-[2-(trifluoromethyl)phenyl]acetamido}pyridin-2-yl)acetamide], on human P2X4, the “Human P2X4 HEK Cells” value is recorded as 100% and the IC50 is 314 nM. Also, at rat P2X4, the concentration for half-maximal inhibition (IC50) is 1030 nM and the “Rat P2X4 1321N1 Astrocytoma Cells” value was found to be 100%.

On to `CC(=O)N(c1cc(F)cc(F)c1)c1cc(NC(=O)Cc2c(C)cccc2C)ccn1` [Example 85, N-(3,5-difluorophenyl)-N-{4-[2-(2,6-dimethylphenyl)acetamido]pyridin-2-yl}acetamide], for which, at human P2X4, the “Human P2X4 HEK Cells” value is recorded as 98% and the IC50 came out at 251 nM. In addition, on rat P2X4, the IC50 was determined as 229 nM and the “Rat P2X4 1321N1 Astrocytoma Cells” value is reported as 97%.

For `CC(=O)N(c1cc(F)cc(F)c1)c1cc(NC(=O)Cc2ccccc2Cl)ccn1` [Example 86, N-{4-[2-(2-chlorophenyl)acetamido]pyridin-2-yl}-N-(3,5-difluorophenyl)acetamide], at human P2X4, the “Human P2X4 HEK Cells” value came to 98% and the IC50 amounted to 196 nM. At rat P2X4, the IC50 was 393 nM and the “Rat P2X4 1321N1 Astrocytoma Cells” value is listed as 98%.

On to `CC(=O)N(c1cc(F)cc(F)c1)c1cc(NC(=O)Cc2ccc(F)cc2Cl)ccn1` [Example 87, N-{4-[2-(2-chloro-4-fluorophenyl)acetamido]pyridin-2-yl}-N-(3,5-difluorophenyl)acetamide], for which, at human P2X4, the “Human P2X4 HEK Cells” value turned out to be 98% and the concentration for half-maximal inhibition (IC50) was 313 nM. Further, at rat P2X4, the IC50 was found to be 983 nM and the “Rat P2X4 1321N1 Astrocytoma Cells” value was found to be 94%.

As for `CC(=O)N(c1cc(F)cc(F)c1)c1cc(NC(=O)Cc2cccc(F)c2Cl)ccn1` [Example 88, N-{4-[2-(2-chloro-3-fluorophenyl)acetamido]pyridin-2-yl}-N-(3,5-difluorophenyl)acetamide], at human P2X4, the “Human P2X4 HEK Cells” value turned out to be 97% and the concentration for half-maximal inhibition (IC50) stood at 198 nM. For the same molecule, on rat P2X4, the IC50 amounted to 451 nM and the “Rat P2X4 1321N1 Astrocytoma Cells” value amounted to 100%.

As to `CC(=O)N(c1cc(F)cc(F)c1)c1cc(NC(=O)Cc2c(Cl)cccc2Cl)ccn1` [Example 89, N-{4-[2-(2,6-dichlorophenyl)acetamido]pyridin-2-yl}-N-(3,5-difluorophenyl)acetamide], at human P2X4, the “Human P2X4 HEK Cells” value came to 99% and the IC50 amounted to 169 nM. For the same molecule, at rat P2X4, the IC50 amounted to 103 nM and the “Rat P2X4 1321N1 Astrocytoma Cells” value was 98%.

For `CC(=O)N(c1cc(F)cc(F)c1)c1cc(NC(=O)Cc2c(Cl)cc(F)cc2Cl)ccn1` [Example 90, N-{4-[2-(2,6-dichloro-4-fluorophenyl)acetamido]pyridin-2-yl}-N-(3,5-difluorophenyl)acetamide], on human P2X4, the “Human P2X4 HEK Cells” value came out at 98% and the IC50 came out at 272 nM. Further, on rat P2X4, the half-inhibitory concentration (IC50) is 110 nM and the “Rat P2X4 1321N1 Astrocytoma Cells” value came to 97%.

For `CC(=O)N(c1cc(F)cc(F)c1)c1cc(NC(=O)Cc2ccccc2OC(F)(F)F)ccn1` [Example 91, N-(3,5-difluorophenyl)-N-(4-{2-[2-(trifluoromethoxy)phenyl]acetamido}pyridin-2-yl)acetamide], on human P2X4, the “Human P2X4 HEK Cells” value was 98% and the IC50 turned out to be 345 nM. Further, at rat P2X4, the IC50 is 1630 nM and the “Rat P2X4 1321N1 Astrocytoma Cells” value is listed as 100%.

`COc1cccc(N(C(C)=O)c2cc(NC(=O)Cc3ccccc3Cl)ccn2)c1` [Example 100, N-{4-[2-(2-chlorophenyl)acetamido]pyridin-2-yl}-N-(3-methoxyphenyl)acetamide]: on human P2X4, the “Human P2X4 HEK Cells” value is on record as 98% and the IC50 is 408 nM. On rat P2X4, the IC50 worked out at 965 nM and the “Rat P2X4 1321N1 Astrocytoma Cells” value is 98%.

For the molecule `COc1cccc(N(C(C)=O)c2cc(NC(=O)Cc3cccc(F)c3Cl)ccn2)c1` [Example 101, N-{4-[2-(2-chloro-3-fluorophenyl)acetamido]pyridin-2-yl}-N-(3-methoxyphenyl)acetamide], on human P2X4, the “Human P2X4 HEK Cells” value stood at 97% and the IC50 worked out at 406 nM. At rat P2X4, the IC50 was 971 nM and the “Rat P2X4 1321N1 Astrocytoma Cells” value is recorded as 100%.
